According to publication PMC11375810, “Novel Diacyl-hydrazide Compounds as Potential Therapeutics for Visceral Leishmaniasis” (ACS Omega, 2024):
Where two headings read alike, the source gives them in different places.

Legend:
[1] = system: L. donovani amastigote/macrophages; set-up: method as in PMID 25740547; details: GSK kinetoplastid high-throughput screen; cited from earlier work
[2] = THP-1 macrophage infection assay: cytotoxicity to host cells; details: human
[3] = system: intracellular L. donovani in THP-1 macrophage host cells; test: THP-1 macrophage infection assay: anti L. donovani activity; details: for SI (CC50/IC50): THP-1 CC50 / L. donovani IC50; for L. donovani growth inhibitory activity (in words): L. donovani in THP-1 macrophages
[4] = Metabolic stability of compound 1; assay type: in vitro ADME
Source text: We first analyzed compound 1 for physicochemical parameters such as the molecular weight, cLogP, polar surface area, freely rotatable bonds, hydrogen bond donors and acceptors and solubility at pH 2 and 6.5, as well as metabolic stability to evaluate its drug-likeness (Table 1). […] These “drug-like” physicochemical properties and the good synthetic accessibility of the scaffold further supported exploring the compound’s SAR to reveal valuable insights and guidance for drug developers.

[5] = system: L. donovani in infected macrophages; set-up: method as in PMID 25740547; details: cited from earlier work
HepG2 = system: HepG2; set-up: method as in PMID 25740547; details: GSK screen; read-out: CC50 against HepG2 cells; cited from earlier work
[6] = system: intracellular L. donovani in THP-1 macrophage host cells
[7] = Leishmania donovani, THP-1, read-out: IC50 (reduction of total number of parasites by 50%)

Row | Compound | CC50 at 72 h [2] | IC50 [3, 7] | SI (CC50/IC50) [3] | further results
1 | Cn1c(CC(=O)NNC(=O)c2ccc3ccccc3n2)nc2ccccc21 [Compound 1, N′-(2-(1-Methyl-1H-benzo[d]imidazole-2-yl)acetyl)quinoline-2-carbohydrazide] | > 100 µM | 1.9 µM | >54 | pIC50 L. donovani imaging: amastigote/macrophages [1]: 6.1; microsomal CLint ([4]; intrinsic clearance, read-out: metabolic stability Clint,in vitro): 22 µL/min/mg; half-life ([4]; read-out: metabolic stability half-life t1/2): 1.33 h; pIC50 L. donovani in infected macrophages ([5]; GSK kinetoplastid high-throughput screen): ~5.9; IC50 ([5]; GSK screen, read-out: IC50 against L. donovani in infected macrophages): ~1.3 µM; therapeutic window CC50/IC50 (selectivity for the parasite) ([5]; HepG2 CC50 / L. donovani IC50, GSK screen): ~79; CC50 (HepG2): ~100 µM
2 | O=C(Cc1nc2ccccc2[nH]1)NNC(=O)c1ccc2ccccc2n1 [Compound 5a, N′-(2-(1H-Benzo[d]imidazole-2-yl)acetyl)quinoline-2-carbohydrazide] | > 100 µM | 5.9 µM | >17 | –
3 | O=C(Cc1nc2ccccc2s1)NNC(=O)c1ccc2ccccc2n1 [Compound 5b] | > 100 µM | > 100 µM | – | –
4 | O=C(Cc1nc2ccccc2o1)NNC(=O)c1ccc2ccccc2n1 [Compound 5c, N′-(2-(Benzo[d]oxazol-2-yl)acetyl)quinoline-2-carbohydrazide] | 54 µM | 49 µM | 1.1 | –
5 | Cn1c(CC(=O)NNC(=O)c2ccc3ccccc3c2)nc2ccccc21 [Compound 13a, N′-(2-(1-Methyl-1H-benzo[d]imidazole-2-yl)acetyl)-2-naphthohydrazide] | > 100 µM | > 100 µM | – | L. donovani growth inhibitory activity (in words) [3]: completely lost their L. donovani growth inhibitory activity
6 | Cn1c(CC(=O)NNC(=O)c2ccccn2)nc2ccccc21 [Compound 13b, N′-(2-(1-Methyl-1H-benzo[d]imidazole-2-yl)acetyl)picolinohydrazide] | 62 µM | 44 µM | 1.4 | –
7 | Cn1c(CC(=O)NNC(=O)c2ccccc2)nc2ccccc21 [Compound 13c, N′-(2-(1-Methyl-1H-benzo[d]imidazole-2-yl)acetyl)benzohydrazide] | > 100 µM | > 100 µM | – | L. donovani growth inhibitory activity (in words) [3]: completely lost their L. donovani growth inhibitory activity
8 | Cn1c(CC(=O)NNC(=O)c2cccc(-c3ccccc3)n2)nc2ccccc21 [Compound 13d, N′-(2-(1-Methyl-1H-benzo[d]imidazole-2-yl)acetyl)-6-phenylpicolinohydrazide] | > 100 µM | 20 µM | – | –
9 | Cn1c(CC(=O)NNC(=O)c2ccc(-c3ccccc3)cn2)nc2ccccc21 [Compound 13e, N′-(2-(1-Methyl-1H-benzo[d]imidazole-2-yl)acetyl)-5-phenylpicolinohydrazide] | 49 µM | 1.7 µM | 29 | –
10 | Cn1c(CC(=O)NNC(=O)c2ccc(-c3ccccc3Cl)cn2)nc2ccccc21 [Compound 17a, 5-(2-Chlorophenyl)-N′-(2-(1-methyl-1H-benzo[d]imidazole-2-yl)acetyl)picolinohydrazide] | > 100 µM | 1 µM | >103 | –
11 | Cn1c(CC(=O)NNC(=O)c2ccc(-c3cccc(Cl)c3)cn2)nc2ccccc21 [Compound 17b, 5-(3-Chlorophenyl)-N′-(2-(1-methyl-1H-benzo[d]imidazole-2-yl)acetyl)picolinohydrazide] | 94 µM | 1 µM | 94 | –
12 | Cn1c(CC(=O)NNC(=O)c2ccc(-c3ccc(Cl)cc3)cn2)nc2ccccc21 [Compound 17c, 5-(4-Chlorophenyl)-N′-(2-(1-methyl-1H-benzo[d]imidazole-2-yl)acetyl)picolinohydrazide] | 73 µM | 1 µM | 74 | –
13 | Cn1c(CC(=O)NNC(=O)c2ccc(-c3cccc(C#N)c3)cn2)nc2ccccc21 [Compound 17d, 5-(3-Cyanophenyl)-N′-(2-(1-methyl-1H-benzo[d]imidazole-2-yl)acetyl)picolinohydrazide] | > 100 µM | 1.4 µM | >74 | –
14 | Cn1c(CC(=O)NNC(=O)c2ccc(-c3ccc(C#N)cc3)cn2)nc2ccccc21 [Compound 17e, 5-(4-Cyanophenyl)-N′-(2-(1-methyl-1H-benzo[d]imidazole-2-yl)acetyl)picolinohydrazide] | 96 µM | 0.8 µM | 120 | –
15 | COc1ccccc1-c1ccc(C(=O)NNC(=O)Cc2nc3ccccc3n2C)nc1 [Compound 17f, 5-(2-Methoxyphenyl)-N′-(2-(1-methyl-1H-benzo[d]imidazole-2-yl)acetyl)picolinohydrazide] | 19 µM | 0.6 µM | 32 | –
16 | COc1cccc(-c2ccc(C(=O)NNC(=O)Cc3nc4ccccc4n3C)nc2)c1 [Compound 17g, 5-(3-Methoxyphenyl)-N′-(2-(1-methyl-1H-benzo[d]imidazole-2-yl)acetyl)picolinohydrazide] | > 100 µM | 0.6 µM | >172 | –
17 | COc1ccc(-c2ccc(C(=O)NNC(=O)Cc3nc4ccccc4n3C)nc2)cc1 [Compound 17h, 5-(4-Methoxyphenyl)-N′-(2-(1-methyl-1H-benzo[d]imidazole-2-yl)acetyl)picolinohydrazide] | > 100 µM | 0.7 µM | >145 | –
18 | Cc1ccccc1-c1ccc(C(=O)NNC(=O)Cc2nc3ccccc3n2C)nc1 [Compound 17i, N′-(2-(1-Methyl-1H-benzo[d]imidazole-2-yl)acetyl)-5-(o-tolyl)picolinohydrazide] | 67 µM | 0.4 µM | 168 | –
19 | Cc1cccc(-c2ccc(C(=O)NNC(=O)Cc3nc4ccccc4n3C)nc2)c1 [Compound 17j, N′-(2-(1-Methyl-1H-benzo[d]imidazole-2-yl)acetyl)-5-(m-tolyl)picolinohydrazide] | 52 µM | 0.3 µM | 173 | –
20 | Cc1ccc(-c2ccc(C(=O)NNC(=O)Cc3nc4ccccc4n3C)nc2)cc1 [Compound 17k, N′-(2-(1-Methyl-1H-benzo[d]imidazole-2-yl)acetyl)-5-(p-tolyl)picolinohydrazide] | > 100 µM | 0.2 µM | >500 | –
21 | N′-(2-(Imidazole-2-yl)acetyl)quinoline-2-carbohydrazide [Compound 12] | – | – | – | Complete parasite clearance ([3]; L. donovani in THP-1 macrophage host cells, 10-point curve, top 100 μM, duplicates, n = 1): >100 µM; IC50 ([3]; read-out: IC50 (reduction of total number of parasites by 50%), L. donovani in THP-1 macrophage host cells, 10-point curve, 2× serial dilution, top 100 μM, duplicates, n = 1): 45 µM; SI (CC50/IC50) [6]: 0.7; CC50 (THP-1 macrophages): 33 µM
